Data published in patent publication US8357659B2, “Method of treating pain or itching with APETx2 peptide toxin” (priority 2008, dated 2013).

What was measured:
[1] = biological target: T1, ASIC3 (rat clone) in F-11 cells (Rattus norvegicus, UniProt O35240); assay: Whole cell patch clamp of recombinant ASIC3 in transfected F-11 cells; format: cell-based
T1 construct: expressed in transfected cells; host or cells: F-11 cells, vector pCI-ASIC3r co-transfected with pIRES2-EGFP
T1 sequence (O35240 1-533): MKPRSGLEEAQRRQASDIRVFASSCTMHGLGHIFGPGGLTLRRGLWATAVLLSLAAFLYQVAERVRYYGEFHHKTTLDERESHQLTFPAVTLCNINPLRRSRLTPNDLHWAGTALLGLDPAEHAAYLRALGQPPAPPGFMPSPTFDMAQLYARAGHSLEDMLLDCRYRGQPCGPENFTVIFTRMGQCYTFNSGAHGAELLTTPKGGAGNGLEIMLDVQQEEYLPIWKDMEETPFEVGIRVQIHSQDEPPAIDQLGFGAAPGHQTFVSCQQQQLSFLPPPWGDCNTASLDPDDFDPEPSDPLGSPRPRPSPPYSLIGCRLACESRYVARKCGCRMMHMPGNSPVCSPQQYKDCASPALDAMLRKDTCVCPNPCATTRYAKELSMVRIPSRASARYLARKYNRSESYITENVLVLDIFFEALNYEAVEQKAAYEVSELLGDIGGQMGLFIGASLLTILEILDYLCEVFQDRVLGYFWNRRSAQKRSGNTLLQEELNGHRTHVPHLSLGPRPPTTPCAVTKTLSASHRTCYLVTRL
Method: (§1) F-11 cells (refs. 44, 45, 46, 47]) were cultured in 5% of CO2 at a density of 50,000 cells per 35 mm Petri dish. The culture medium contained HAM F-12 medium (Invitrogen) supplemented with 15% foetal bovine serum (ICN Biomedicals), 1×HAT (sodium hypoxanthine, aminopterine and thymidine), 200 μg/ml of allo-4-hydroxy-L-proline (Sigma-Aldrich) and 1% antibiotics. One day after seeding, the cells were transfected with ASIC1a or ASIC3 DNAc (rat clones) using Lipofectamine™ (Invitrogen) according to the manufacturer's instructions using the vectors pCI-ASIC1ar+pIRES2-EGFP (ratio 1:2) or pCI-ASIC3r+pIRES2-EGFP (ratio 1:10) ([ref. 36]), quoted above). For the experiments concerning the human ASIC3 clone (refer to experiments on the effects of the APETx2 toxin on the human form of the ASIC3 channel), the cells were transfected with the DNAc of human ASIC3 using the transfection agent JetPEI (Polypus Transfection) according to the manufacturer's instructions with the aid of the vector pASIC3h-IRES-EGFP. The cells were used for the patch clamp experiments (an electrophysiological method for recording ionic currents travelling through cell membranes) 2 to 4 days after transfection.
(§2) The whole cell configuration of the patch clamp method was used ([ref. 48]) in order to measure the membrane currents (imposed voltage) or the membrane potentials (imposed current). The recordings were performed at ambient temperature using an RK-400 amplifier (Bio-Logic Science Instruments) with a 3 kHz low-pass filter (Krohn-Hite). The data were sampled at 10 kHz, digitised using a Digidata 1322A A-D/D-A converter (Axon Instruments) and recorded on a hard disk using pClamp software (version 9.2.0.11, Axon Instruments). The recording probes (1-4 MOhms) contained (in mM): 135 KCl, 2.5 Na2-ATP, 2 MgCl2, 2.1 CaCl2, 5 EGTA, 10 HEPES (pH 7.25 with KOH). Various different buffers and drugs of interest were added to the transfected cells considered individually using an internally developed microinfusion system controlled by microelectrovalves (Sirai, Italy) allowing rapid changes of solution. The control bath solution contained (in mM): 145 NaCl, 5 KCl, 2 MgCl2, 2 CaCl2, 10 HEPES (pH 7.4 with NaOH). The MES medium was used instead of the HEPES medium in order to buffer the solution at a pH ranging from 6 to 5, and the ASIC currents were induced by rapid changes of a control solution at pH 7.4 to an acid test solution using the microinfusion system. For the experiments conducted on the DRG neurons, glucose (10 mM) was added to the control bath solution. Hypertonic conditions were obtained by adding mannitol or sucrose to the external bath solutions, as indicated in the text.

[2] = test system: ASIC type current of cutaneous neurons of the spinal ganglia; assay: Whole cell patch clamp of native ASIC currents in cutaneous neurons of the spinal ganglia; format: cell-based, rat
Method: The neurons of the dorsal root ganglion (spinal ganglia or DRG) innervating the skin were labelled by subcutaneous injections of 5×1 μl of Dil fluorescent dye (5% DMSO, Molecular Probes) in the dorsal side of the rats' hind paws. The dye was injected two weeks before the rats were sacrificed in order to prepare a primary culture of dorsal root ganglion.
The lumbar dorsal root ganglia L3-L6 of Wistar rats (8-11 weeks) were dissected bilaterally and separated enzymatically with 0.1% collagenase. The cells were subsequently plated on 35 mm Petri dishes covered with collagen and cultured at 37° C. (95% air/5% CO2) in DMEM medium containing 5% of foetal calf serum. The electrophysiological experiments were performed 1 to 8 days after seeding.
as §2

[3] = biological target: T2, ASIC1a (rat clone) in F-11 cells (Rattus norvegicus, UniProt P55926); assay: Whole cell patch clamp of recombinant ASIC1a in transfected F-11 cells; format: cell-based
T2 construct: expressed in transfected cells; host or cells: F-11 cells, vector pCI-ASIC1ar co-transfected with pIRES2-EGFP
T2 sequence (P55926 1-526): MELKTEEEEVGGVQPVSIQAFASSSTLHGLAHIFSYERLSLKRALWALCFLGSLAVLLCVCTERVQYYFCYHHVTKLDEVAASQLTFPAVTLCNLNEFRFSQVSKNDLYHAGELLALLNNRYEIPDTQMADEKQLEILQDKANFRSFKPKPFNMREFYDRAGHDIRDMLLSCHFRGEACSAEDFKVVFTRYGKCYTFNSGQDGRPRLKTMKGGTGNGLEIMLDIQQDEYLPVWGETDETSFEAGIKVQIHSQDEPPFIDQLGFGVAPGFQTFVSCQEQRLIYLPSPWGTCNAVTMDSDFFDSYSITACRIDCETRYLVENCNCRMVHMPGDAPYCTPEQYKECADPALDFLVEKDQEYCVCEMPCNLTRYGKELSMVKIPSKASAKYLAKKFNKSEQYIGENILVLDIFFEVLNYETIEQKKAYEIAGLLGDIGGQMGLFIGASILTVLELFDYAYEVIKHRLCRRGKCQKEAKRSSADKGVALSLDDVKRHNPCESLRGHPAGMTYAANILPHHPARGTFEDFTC
Method: as §1
The whole cell configuration of the patch clamp method was used ([ref. 48]) in order to measure the membrane currents (imposed voltage) or the membrane potentials (imposed current). The recordings were performed at ambient temperature using an RK-400 amplifier (Bio-Logic Science Instruments) with a 3 kHz low-pass filter (Krohn-Hite). The data were sampled at 10 kHz, digitised using a Digidata 1322A A-D/D-A converter (Axon Instruments) and recorded on a hard disk using pClamp software (version 9.2.0.11, Axon Instruments). The recording probes (1-4 MOhms) contained (in mM): 135 KCl, 2.5 Na2-ATP, 2 MgCl2, 2.1 CaCl2, 5 EGTA, 10 HEPES (pH 7.25 with KOH). Various different buffers and drugs of interest were added to the transfected cells considered individually using an internally developed microinfusion system controlled by microelectrovalves (Sirai, Italy) allowing rapid changes of solution. […]

[4] = test system: cutaneous pain induced by moderate acidification; assay: Nociceptive behaviour in rats after subcutaneous injection of moderately acidic solutions; format: in vivo, rat
Method: Adult (7-8 weeks' old) male Wistar rats (Charles River, France) were placed in plastic cages with a nyctohemeral period of 12 h (with light between 8 a.m. and 8 p.m.) and with free access to food and water. The rats were left to acclimatize for at least one week before the experiments. For the behavioural experiments, the rats were placed in a transparent observation chamber where they were acclimatized for 20-30 minutes. They were subsequently immobilised while 20 μl of saline solution (0.9% or 2% of NaCl+20 mM of HEPES, […] or 60 nM of PcTx1 toxin), was administered subcutaneously to the dorsal side of the right hind paw using a 30G needle connected to a 100 μl Hamilton syringe. The nociceptive behaviour (i.e. the number of hind leg quiverings) was recorded over a 5-minute period, starting immediately after the injection ([ref. 59]).

ASIC3 messenger RNA = assay: Quantitative RT-PCR of channel messenger RNA levels in spinal ganglia after intrathecal iRNA; format: in vivo, rat; conditions: 2 μg per injection, one per day for 3 days, other ASIC and TRPV1 channels not reduced
Text: (§3) ASIC3 channel-specific iRNA (no. 1121; CTACACGCTATGCCAAGGA, SEQ ID NO: 1) and its control (no. 1121S; GCTCACACTACGCAGAGAT, SEQ ID NO: 2) were designed in the laboratory and were synthesised by MWG Biotech Company (Germany). The ASIC3-specific iRNA was validated by quantification of the messenger RNA levels by quantitative RT-PCR for each ASIC channel and for the TRPV1 channel, following intrathecal injections into the lumbar region of the spinal cord of rats, at a rate of one injection per day for 3 consecutive days, before the animal was sacrificed. The same procedure was followed before induction of inflammation by CFA. Each injection was 10 μl in volume, containing 2 μg of iRNA mixed with the transfection agent i-Fect (Neuromics) at a ratio of 1 to 4.

[5] = test system: thermal hyperalgesia induced by CFA; assay: Inflammation-induced (CFA) thermal hyperalgesia in rats, hotplate at 50° C.; format: in vivo, rat
Method: Sensitivity to heat of adult male Wistar rats (Charles River, France) was tested by measuring the time taken by the animal to retract one of its hind paws when placed on a hotplate at 50° C. (Bioseb, France), before and after induction of inflammation by subcutaneous injection of a solution of Freund's complete adjuvant (CFA, Sigma-Aldrich, France). The rats were acclimatised to the experimentation room for at least 30 minutes and each measurement was performed in duplicate. An initial measurement was performed before induction of inflammation. The rats were subsequently anaesthetised (isofluorane) while 150 μl of CFA diluted 1:1 with a saline solution (0.9% NaCl) containing either toxins (PcTx1 or APETx2, 120 nM and 20 μM, respectively) or the vehicle was injected (26G needle mounted on a 1 ml syringe) subcutaneously into the plantar side of one of the hind paws. The time taken by the animal to lift the injected hind paw was subsequently measured at 50° C., 2, 4 and 24 hours after the injection of CFA.
as §3

CCCCC/C=C\C/C=C\C/C=C\C/C=C\CCCC(=O)O [arachidonic acid]
non-inactivating ASIC3 window current ([1]; FIG. 4D): markedly increased | increase of the ASIC3 current ([1]; activated by pH 6.6, n=7, P=0.45): 40±22% | increase of the ASIC3 current ([1]; activated by pH 7.0, n=9): 493±84% | increase of the ASIC3 current ([1]; activated by pH 7.2, n=23): 547±103% | excitability of the cutaneous neurons (triggering of the action potential) ([2]; FIG. 2C): increased excitability | increase of the ASIC current induced by native pH 7.0 ([2]; pH 7.0, n=6, P=0.06): 172±65% | increase of the ASIC1a current ([3]; pH 6.6, n=2): 21±15% | increase of the ASIC1a current ([3]; pH 7.0, n=5, P=0.06): 183±54% | effect on ASIC1a current ([3]; pH 7.2): does not have any effect | quivering score ([4]; co-injected 2% NaCl (~600 mosmol.kg^−1) and 10 mM AA at pH 6.9, subcutaneous, hind paw, 5-minute period, n=25, versus 11.1±2.54 at pH 6.9 alone): 20.42±2.53

OC[C@@H](O)[C@@H](O)[C@H](O)[C@H](O)CO [mannitol]
increase of the ASIC3 current by hyperosmolarity ([1]; 600 mosmol.kg^−1 with mannitol, activated by pH 7.2, n=20): 148±20%

ASIC3 channel-specific iRNA: interfering RNA directed against ASIC3 messenger RNA, CTACACGCTATGCCAAGGA, SEQ ID NO: 1 (listed as DNA, chemistry not given here)
expression of the ASIC3 channels in the sensory neurons (ASIC3 messenger RNA): marked and exclusive reduction | development of inflammatory thermal hyperalgesia ([5]; intrathecal iRNA during the 3 days preceding CFA, versus random sequence control iRNA): do not develop any inflammatory thermal hyperalgesia

PcTx1: animal peptide toxin, selective inhibitor of the homomer channels ASIC1a (EDCIPKWKGCVNRHGDCCEGLECWKRRRSFEVCVPKTPKT)
inhibition by the toxin of the ASIC type current induced by pH 6.6 ([2]; in 4.7% (2/43) of neurons, ASIC1a homomer current): > 90% | inhibition by the toxin of the ASIC type current induced by pH 6.6 ([2]; in 23.3% (10/43) of neurons, ASIC3 type currents): < 10% | development of thermal hyperalgesia ([5]; toxin concomitantly injected with CFA (APETx2 20 μM, PcTx1 120 nM), four hours after CFA): devoid of any significant effect | behaviour in response to acid pain with inflammatory signals ([4]; pH 6.9 + 2% NaCl + AA, 10 μM APETx2 or 60 nM PcTx1 in injected solution, FIG. 5A): devoid of any significant effect
